# Results from PMC6534296, “Structural analysis of Cytochrome P450 BM3 mutant M11 in complex with dithiothreitol” (PLoS ONE, 2019).
# Molecular target: T1, Cytochrome P450 BM3 (CYP102A1) mutant M11 (Priestia megaterium, UniProt P14779, E144G/E268V/E65G/F82I/F88V/G416S/H286Y/L189Q/R48L/Y199C)
# T1 construct: heme domain (stop codon introduced after residue 473)
# Assay: X-ray crystal structure ([…] Å) and UV/Vis difference spectral titration
# Format: binding
# T1 sequence (P14779 1-474 R48L/E65G/F82I/F88V/E144G/L189Q/Y199C/E268V/H286Y/G416S): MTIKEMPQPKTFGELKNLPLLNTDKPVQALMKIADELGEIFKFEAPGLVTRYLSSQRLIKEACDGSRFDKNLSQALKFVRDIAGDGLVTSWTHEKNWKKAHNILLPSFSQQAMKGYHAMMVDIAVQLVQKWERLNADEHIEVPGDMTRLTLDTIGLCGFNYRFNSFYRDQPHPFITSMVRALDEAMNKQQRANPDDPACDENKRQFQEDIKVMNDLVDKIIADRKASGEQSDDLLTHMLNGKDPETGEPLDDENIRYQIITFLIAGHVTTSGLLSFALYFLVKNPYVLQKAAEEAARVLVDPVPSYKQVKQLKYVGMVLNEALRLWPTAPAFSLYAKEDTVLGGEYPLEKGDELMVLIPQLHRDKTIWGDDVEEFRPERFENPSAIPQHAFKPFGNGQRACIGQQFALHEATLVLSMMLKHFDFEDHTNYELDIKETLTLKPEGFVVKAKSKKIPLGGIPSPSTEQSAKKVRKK
smiles,measurement,value
"O[C@@H](CS)[C@@H](O)CS (racemic) [DTT, dithiothreitol]",Kd,56.8 ± 1.3 µM
